Assay results published in ChEMBL document CHEMBL6071176, “Development of Phloroglucinol-Linked Tris-Quaternary Ammonium Salt Antimicrobial Peptide Mimics with Low Cytotoxicity and Broad-Spectrum Antibacterial Activity” (J Med Chem, 2024).
Active and inactive are the calls of the source. The calls are words filed in the database; no cut-off is given here.

Columns and labels:
[1] = system: Enterococcus faecalis; experiment: Antimicrobial activity against Enterococcus faecalis assessed as inhibition of growth incubated for 18 hrs by CLSI guidelines based assay; type: functional
[2] = system: Stenotrophomonas maltophilia; experiment: Antimicrobial activity against Stenotrophomonas maltophilia assessed as inhibition of growth incubated for 18 hrs by CLSI guidelines based assay; type: functional
[3] = Hemolytic activity in sheep red blood cells measured after 1 hr incubation; type: toxicity, cell-based, Ovis aries, Erythrocyte
[4] = Cytotoxicity against human Gastric mucosal cells measured after 24 hrs by CCK-8 assay; type: toxicity, cell-based, Gastric mucosal cell
[5] = system: Staphylococcus aureus; experiment: Antibacterial activity against methicillin-resistant Staphylococcus aureus assessed as inhibition of bacterial growth incubated for 18 hrs by CLSI guidelines based assay; type: functional
[6] = system: Staphylococcus aureus; experiment: Antibacterial activity against NDM-1 gene-resistant Staphylococcus aureus assessed as inhibition of bacterial growth incubated for 18 hrs by CLSI guidelines based assay; type: functional
[7] = system: Staphylococcus aureus; experiment: Antibacterial activity against methicillin-resistant Staphylococcus aureus assessed as inhibition of bacterial growth measured after 3 hrs in presence of plasma; type: functional, organism-based
[8] = system: Staphylococcus aureus; experiment: Antibacterial activity against methicillin-resistant Staphylococcus aureus assessed as inhibition of bacterial growth measured after 6 hrs in presence of plasma; type: functional, organism-based
[9] = system: Staphylococcus aureus; experiment: Bactericidal activity against Staphylococcus aureus assessed as bacterial killing in presence of Mueller-Hinton broth; type: functional, organism-based
[10] = system: Escherichia coli; experiment: Bactericidal activity against early exponential phase Escherichia coli assessed as bacterial killing at 3 ug/ml incubated for 6 hrs by time-kill assay; type: functional, organism-based; conditions: dose 3.0 µg/ml
[11] = system: Staphylococcus aureus; experiment: Bactericidal activity against late exponential phase Staphylococcus aureus assessed as bacterial elimination at 8 ug/ml incubated for 6 to 8 hrs by time-kill assay; type: functional; conditions: dose 8 µg/ml; time 6-8 hrs
[12] = system: Escherichia coli; experiment: Bactericidal activity against late exponential phase Escherichia coli assessed as bacterial elimination at 8 ug/ml incubated for 6 to 8 hrs by time-kill assay; type: functional; conditions: dose 8 µg/ml; time 6-8 hrs
[13] = system: Staphylococcus aureus; experiment: Resistance development in Staphylococcus aureus assessed as increase in MIC measured within 20 passages of continues culture; type: functional
[14] = system: Escherichia coli; experiment: Resistance development in Escherichia coli assessed as increase in MIC measured within 20 passages of continues culture; type: functional
[15] = system: Staphylococcus aureus; experiment: Anti-biofilim activity against Staphylococcus aureus biofilm assessed bacterial survival rate at 4 ug/ml measured after 24 hrs incubation; type: functional
[16] = system: Staphylococcus aureus; experiment: Anti-biofilim activity against Staphylococcus aureus biofilm assessed bacterial survival rate at 8 ug/ml measured after 24 hrs incubation; type: functional
[17] = system: Staphylococcus aureus; experiment: Anti-biofilim activity against Staphylococcus aureus biofilm assessed bacterial survival rate at 16 ug/ml measured after 24 hrs incubation; type: functional
[18] = system: Staphylococcus aureus; experiment: Anti-biofilim activity against Staphylococcus aureus biofilm assessed bacterial survival rate at 32 ug/ml measured after 24 hrs incubation; type: functional
[19] = system: Staphylococcus aureus; experiment: Anti-biofilim activity against Staphylococcus aureus biofilm assessed bio-film thickness at 32 ug/ml measured after 24 hrs incubation by SYTO 9 staining based […] laser scanning microscopy (CLSM) (reference value: 29.5 microm); type: functional; conditions: dose 32 µg/ml
[20] = system: Staphylococcus aureus; experiment: Anti-microbial activity against Staphylococcus aureus assessed as bacterial growth inhibition in presence of 0.5 to […] ug/ml PG (exogenous bacterial cell membrane component) measured after 18 hrs; type: functional, organism-based
[21] = system: Staphylococcus aureus; experiment: Anti-microbial activity against Staphylococcus aureus assessed as bacterial growth inhibition in presence of PE (exogenous bacterial cell membrane component) measured after 18 hrs; type: functional, organism-based
[22] = system: Staphylococcus aureus; experiment: Anti-microbial activity against Staphylococcus aureus assessed as bacterial growth inhibition in presence of CL (exogenous bacterial cell membrane component) measured after 18 hrs; type: functional, organism-based
[23] = system: Cell membrane; experiment: Induction of membrane damage in Staphylococcus aureus assessed as nucleic acid leakage measured at 0.5 to 2 times of MIC by microplate spectrophotometry; type: subcellular; conditions: TDE = time-dependent effect
[24] = system: Staphylococcus aureus; experiment: Induction of ROS level in Staphylococcus aureus assessed as increase in intracellular ROS level by measuring fold increase in fluorescent intensity at 0.5 ug/ml measured after 4.5 hrs by ROS-sensitive fluorescent probe DCF-DA staining based assay; type: functional; conditions: dose 0.5 µg/ml
[25] = system: Staphylococcus aureus; experiment: Induction of morphological changes in Staphylococcus aureus assessed as wrinkled/cracked surface at 4 ug/ml incubated for 4 hrs by Scanning electron microscopy (SEM); type: functional, organism-based; conditions: dose 4.0 µg/ml
[26] = system: Staphylococcus aureus; experiment: Up-regulation of riboflavin metabolic pathway genes in Staphylococcus aureus at 0.25 ug/ml and incubated for 4 hrs by Transcriptome analysis; type: functional, organism-based; conditions: dose 0.25 µg/ml
[27] = system: Staphylococcus aureus; experiment: Up-regulation of quorum sensing pathway genes in Staphylococcus aureus at 0.25 ug/ml and incubated for 4 hrs by Transcriptome analysis; type: functional, organism-based; conditions: dose 0.25 µg/ml
[28] = system: Staphylococcus aureus; experiment: Down-regulation of pyrimidine metabolic pathway genes in Staphylococcus aureus at 0.25 ug/ml and incubated for 4 hrs by Transcriptome analysis; type: functional, organism-based; conditions: dose 0.25 µg/ml
[29] = system: Staphylococcus aureus; experiment: Down-regulation of thiamine pyrophosphate enzyme in Staphylococcus aureus at 0.25 ug/ml and incubated for 4 hrs by Transcriptome analysis; type: functional, organism-based; conditions: dose 0.25 µg/ml
[30] = system: Staphylococcus aureus; experiment: Down-regulation of N-terminal TPP binding domain in Staphylococcus aureus at 0.25 ug/ml and incubated for 4 hrs by Transcriptome analysis; type: functional, organism-based; conditions: dose 0.25 µg/ml
[31] = Hemolytic activity in Red blood cells (unknown origin) assessed as hemolytic rate at 1280 ug/ml relative to control; type: toxicity, cell-based, Erythrocyte; conditions: at 1280 µg/mL, read-out: Activity
[32] = Cytotoxicity against human Gastric mucosal cells measured assessed as cell morphology at 32 ug/ml measured after 24 hrs by Electron scanning microscopy; type: toxicity, cell-based; conditions: dose 32 µg/ml
[33] = Toxicity in female SPF Kunming mouse assessed as survival rate at 200 mg/kg/day, sc measured after 24 hrs; type: organism-based; conditions: in vivo
[34] = Toxicity in female SPF Kunming mouse assessed as pathological changes in spleen at 200 mg/kg/day, sc measured after 24 hrs by hematoxylin and eosin staining based assay; type: organism-based; conditions: in vivo
[35] = Toxicity in female SPF Kunming mouse assessed as pathological changes in kidney at 200 mg/kg/day, sc measured after 24 hrs by hematoxylin and eosin staining based assay; type: organism-based; conditions: in vivo
[36] = Toxicity in female SPF Kunming mouse assessed as change in RBC count at 20 mg/kg/day, ip measured after 24 hrs; type: organism-based; conditions: in vivo
[37] = Toxicity in female SPF Kunming mouse assessed as change in PLT count at 20 mg/kg/day, ip measured after 24 hrs; type: organism-based; conditions: in vivo
[38] = Toxicity in female SPF Kunming mouse assessed as change in HBG count at 20 mg/kg/day, ip measured after 24 hrs; type: organism-based; conditions: in vivo
[39] = Toxicity in female SPF Kunming mouse assessed as change in MCV count at 20 mg/kg/day, ip measured after 24 hrs; type: organism-based; conditions: in vivo
[40] = Toxicity in female SPF Kunming mouse assessed as change in ALB level at 20 mg/kg/day, ip measured after 24 hrs; type: organism-based; conditions: in vivo
[41] = Toxicity in female SPF Kunming mouse assessed as change in UREA level at 20 mg/kg/day, ip measured after 24 hrs; type: organism-based; conditions: in vivo
[42] = system: Staphylococcus aureus; experiment: In vivo antibacterial activity against methicillin-resistant Staphylococcus aureus subcutaneously infected in SPF female Kunming mouse model assessed as reduction wound at 5 mg/kg/day injected into blister after 6 hrs of infection measured after 6 consecutive treatments; type: functional
[43] = system: Staphylococcus aureus; experiment: In vivo antibacterial activity against methicillin-resistant Staphylococcus aureus subcutaneously infected in SPF female Kunming mouse model assessed as bacteria count in dissected mouse at 10 mg/kg/day injected into blister after 6 hrs of infection measured after 6 consecutive treatments; type: functional, organism-based

CCCCCCCC[N+](C)(C)CCCCOc1cc(OCCCC[N+](C)(C)CCCCCCCC)cc(OCCCC[N+](C)(C)CCCCCCCC)c1.[Br-].[Br-].[Br-]
MIC [1]: 1 µg/mL | MIC [2]: 2 µg/mL | HC50 at 1 h [3]: > 1280 µg/mL | CC50 at 24 h [4]: < 153 µg/mL | MIC50 [5]: 1 µg/mL | MIC90 [5]: ≥ 16 µg/mL | MIC90 [6]: 2 µg/mL | Activity [7]: Active | Activity [8]: Active | Activity [9]: Active | Activity [10]: Active | Activity [11]: 100% | Activity [12]: 100% | MIC [13]: 0.5 µg/mL | MIC [14]: 1 µg/mL | survival at 4 µg/mL [15]: 2.3% | survival at 8 µg/mL [16]: 0.61% | survival at 16 µg/mL [17]: 0.01% | survival at 32 µg/mL [18]: 0.002% | Activity [19]: 14.7 um | Activity [20]: inactive | Activity [21]: Active | Activity [22]: Active | Activity [23]: Tde | fold change (FC) [24]: 3 | Activity [25]: Active | Activity [26]: Active | Activity [27]: Active | Activity [28]: Active | Activity [29]: Active | Activity [30]: Active | hemolysis at 1280 ug/ml [31]: < 5% | Activity [32]: Non-Toxic | survival at 24 h [33]: 100% | Activity [34]: Non-Toxic | Activity [35]: Non-Toxic | Activity [36]: Non-Toxic | Activity [37]: Non-Toxic | Activity [38]: Non-Toxic | Activity [39]: Non-Toxic | Activity [40]: Non-Toxic | Activity [41]: Non-Toxic | Activity [42]: 251188.6 CFU | Activity [43]: Active
